The values that follow come from ChEMBL document CHEMBL4118242, “Computer-aided discovery and biological characterization of human lactate dehydrogenase 5 inhibitors with anti-osteosarcoma activity” (Bioorg Med Chem Lett, 2018).

The subject of test [1] is MG-63. Kind of test: Antiproliferative activity against human MG63 cells at 10 uM after 72 hrs by MTT assay. In kind it is functional, cell-based. Background: Tetrazolium dyes change colour on reduction, which living cells bring about.
Test [2] deals with MG-63. In words: Antiproliferative activity against human MG63 cells at 4 uM after 72 hrs by MTT assay. In kind it is functional, cell-based.
Test [3] has as its target T1, L-lactate dehydrogenase A chain (Homo sapiens, UniProt P00338). Kind of test: Inhibition of human LDH5 at 10 uM using pyruvate as substrate after 10 mins.
Test [4] deals with T1, L-lactate dehydrogenase A chain. In words: Inhibition of LDH5 in human MG63 cells assessed as increase in oxygen consumption rate at 1 uM after 4 hrs. It counts as cell-based.
In test [5] the test system is MG-63. In words: Antiproliferative activity against human MG63 cells after 72 hrs by MTT assay. It counts as functional, cell-based. Particulars: MG-63, 72 h.
For test [6], the target named is T1, L-lactate dehydrogenase A chain. In words: Inhibition of LDH5 in human MG63 cells assessed as increase in oxygen consumption rate at 1 to 10 uM after 4 hrs. In kind it is cell-based.
For test [7] the target is unchanged. In words: Inhibition of human LDH5 using pyruvate as substrate after 10 mins.
Test [8] deals with MG-63. In words: Antiproliferative activity in human MG63 cells at 4 uM after 24 to 72 hrs by IncuCyte zoom live cell imaging method. It counts as functional, cell-based.
Test [9] addresses T1, L-lactate dehydrogenase A chain. In words: Inhibition of LDH5 in human MG63 cells assessed as decrease in lactate formation after 4 hrs. In kind it is cell-based.
Test [10] has the same target. In words: Inhibition of LDH5 in human MG63 cells assessed as induction of ROS generation at 5 to 10 uM after 4 hrs by DCFH-DA staining-based fluorescence assay. It counts as cell-based.
For test [11] the target is unchanged. In words: Inhibition of human LDH5 at 1 uM using pyruvate as substrate after 10 mins.
The target is the same in test [12]. In words: Inhibition of LDH5 in human MG63 cells assessed as decrease in extracellular acidification rate after 4 hrs. In kind it is cell-based.

The source made the active and inactive calls. The calls are words filed in the database; no cut-off is given here.

For orientation: IC50 means the midpoint of a concentration-inhibition curve. Usually EC50 stands for the midpoint of the concentration-response curve. Read a high EC50 as a less potent agent.

As for `O=C(Cn1ccnc1-c1ccccc1)NC[C@@H]1COc2ccccc2O1`, the result in the test with MG-63 [1] was Active. Further, in the test on MG-63 [2], the result was inactive.

Turning to `Cc1nc(C)c(CC(=O)N2CCN(CCOc3ccccc3)CC2)c(=O)[nH]1`, the inhibition entry in [3] is “inactive”.

Take `O=C1N[C@](c2ccc(N3CCOCC3)cc2)(c2ccsc2)CC(O)=C1Sc1ccccc1Cl`: the result in test [4] was Active. The same compound displayed an IC50 in the test with MG-63 [5] of 0.66 µM.

`COc1ccc([C@@H](NCc2c[nH]nc2-c2ccc(F)cc2)c2ccncc2)cc1`: the inhibition result in test [3] was “inactive”.

`COc1cccc(CN2CCCCC23CC3)c1OC[C@@H](O)CN1CCOCC1`: the outcome (in test [6]; with MG-63 [8]; in the test with MG-63 [1]; in test [10]) was Active. The compound further gave an EC50 in test [7] of 0.39 µM. Also, the IC50 with MG-63 [5] came to 3.18 µM. Moreover, the inhibition entry in test [9] and in [12] was “Dose-dependent effect” each time. Also, the inhibition entry in test [11] was “Active”.

Take `Cc1cccc(OC[C@H](O)CN2CCN(CCN3C(=O)c4cccc5cccc(c45)C3=O)CC2)c1C`: the EC50 in test [7] turned out to be 0.67 µM. In the test with MG-63 [1], the result was Active. Further, the outcome in the test with MG-63 [2] was inactive. For the same compound, the inhibition result in [11] is “Active”.
